Where two headings read alike, the source gives them in different places. Where a SMILES comes first, the peptide text is derived from it. Bridges are numbered along the chain shown (N, C = ends). [ ]: non-standard residue; d: D form. hPhe(3-Cl-4-CF3) = N[C@@H](CCc1ccc(C(F)(F)F)c(Cl)c1)C(=O)O; NPrPhe(4-CF3) = CCCN[C@@H](Cc1ccc(C(F)(F)F)cc1)C(=O)O; NMeGly(cPent) = CN[C@H](C(=O)O)C1CCCC1; Hyp = O=C(O)[C@@H]1C[C@@H](O)CN1; NMeD = CN[C@@H](CC(=O)O)C(=O)O; NMeL = CN[C@@H](CC(C)C)C(=O)O; Aze = O=C(O)[C@@H]1CCN1; Ac4c = NC1(C(=O)O)CCC1; Sar = CNCC(=O)O
Legend:
[1] = target: GDP-bound KRAS wild-type protein (Homo sapiens, UniProt P01116); assay: Binding to KRAS by surface plasmon resonance (SPR), Single Cycle Kinetics; conditions: GDP-bound KRAS wild-type protein, read-out: KRAS KD
GDP-bound KRAS wild-type protein, sequence (P01116 whole entry): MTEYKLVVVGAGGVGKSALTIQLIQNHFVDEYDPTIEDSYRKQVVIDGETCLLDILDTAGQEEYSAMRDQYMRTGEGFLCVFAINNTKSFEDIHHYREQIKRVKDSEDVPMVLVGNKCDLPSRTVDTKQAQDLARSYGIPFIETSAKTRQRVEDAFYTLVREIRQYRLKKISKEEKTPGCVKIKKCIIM

[2] = target: GDP-bound NRAS wild-type protein (Homo sapiens, UniProt P01111); assay: Binding to NRAS by surface plasmon resonance (SPR), Single Cycle Kinetics; conditions: for NRAS/KRAS (ratio of KD value for NRAS to KD value for KRAS) / NRAS/KRAS (ratio of KD value with respect to NRAS to KD value with respect to KRAS): SPR, GDP-bound NRAS wild-type protein vs GDP-bound KRAS wild-type protein
GDP-bound NRAS wild-type protein, sequence (P01111 whole entry): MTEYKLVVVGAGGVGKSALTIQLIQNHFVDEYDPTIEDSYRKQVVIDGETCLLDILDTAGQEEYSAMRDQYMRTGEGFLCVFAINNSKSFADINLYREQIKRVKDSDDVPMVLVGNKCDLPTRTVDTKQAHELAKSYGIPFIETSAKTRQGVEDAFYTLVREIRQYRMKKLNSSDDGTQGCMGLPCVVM

[3] = target: GDP-bound HRAS wild-type protein (Homo sapiens, UniProt P01112); assay: Binding to HRAS by surface plasmon resonance (SPR), Single Cycle Kinetics; conditions: for HRAS/KRAS (ratio of KD value for HRAS to KD value for KRAS) / HRAS/KRAS (ratio of KD value with respect to HRAS to KD value with respect to KRAS): SPR, GDP-bound HRAS wild-type protein vs GDP-bound KRAS wild-type protein
GDP-bound HRAS wild-type protein, sequence (P01112 whole entry): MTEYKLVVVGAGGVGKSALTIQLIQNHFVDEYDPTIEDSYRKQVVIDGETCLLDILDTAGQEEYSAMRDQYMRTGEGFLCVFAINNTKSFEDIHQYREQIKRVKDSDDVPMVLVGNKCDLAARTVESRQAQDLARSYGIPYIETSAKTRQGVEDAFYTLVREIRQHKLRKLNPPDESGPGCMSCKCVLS

[4] = SPR Single Cycle Kinetics, 1:1 binding model

CCC[C@H]1C(=O)N[C@@H]([C@@H](C)CC)C(=O)N(C2CC2)CC(=O)N(C)[C@H]2C/C=C\CCN(C2=O)[C@@H](Cc2ccc(C(F)(F)F)cc2)C(=O)N(C)CC(=O)N[C@@H](CCc2ccc(C(F)(F)F)c(OC)c2)C(=O)N2C[C@H](OCC)C[C@H]2C(=O)N(C)C2(CCC2)C(=O)N(C)[C@@H](C(CC)CC)C(=O)N(C)[C@H](C(=O)N(C)C)CC(=O)N1C [PP2313]
Kd ([1]; SPR, Single Cycle Kinetics): 490 pM
NRAS/KRAS (ratio of KD value for NRAS to KD value for KRAS) [2]: AA (a compound having 20 or more is denoted as AA)
HRAS/KRAS (ratio of KD value for HRAS to KD value for KRAS) [3]: A (a compound having 10 or more and less than 20 is denoted as A)

CC[C@H](C)[C@@H]1NC(=O)[C@@H]2CCC/C=C/c3ccc(cc3)C[C@@H](C(=O)N(C)CC(=O)N[C@@H](CCc3ccc(Cl)c(Cl)c3)C(=O)N3C[C@H](OC4CCCC4)C[C@H]3C(=O)NC3(CC(C)(C)C3)C(=O)N(C)[C@@H](C3CCCC3)C(=O)N(C)[C@H](C(=O)N3CCCC3)CC(=O)N2C)N2CC/C=C\C[C@@H](C2=O)N(C)C(=O)CN(C)C1=O [PP3054]
Kd ([1]; SPR, Single Cycle Kinetics): 270 pM
NRAS/KRAS (ratio of KD value for NRAS to KD value for KRAS) [2]: A (a compound having 10 or more and less than 20 is denoted as A)
HRAS/KRAS (ratio of KD value for HRAS to KD value for KRAS) [3]: A (a compound having 10 or more and less than 20 is denoted as A)

CCO[C@@H]1C[C@H]2C(=O)NC3(CCC3)C(=O)N(C)[C@@H](C3CCCC3)C(=O)N(C)[C@H](C(=O)N(C)C)CC(=O)N(C)[C@@H](CC3CCCC3)C(=O)N[C@@H]([C@@H](C)CC)C(=O)N(C)CC(=O)N(C)[C@H]3C/C=C\CCN(C3=O)[C@@H](Cc3ccc(C)cc3)C(=O)N(C)CC(=O)N[C@@H](CCc3cc(C)c(C(F)F)c(C)c3)C(=O)N2C1 [PP2675]
Kd [1, 4]: 4500 pM
NRAS/KRAS (ratio of KD value with respect to GDP-bound NRAS wild-type protein to KD value with respect to KRAS) ([2]; SPR KD ratio NRAS/KRAS, class symbols): A (a compound having 10 or more and less than 20 is denoted as A)
HRAS/KRAS (ratio of KD value with respect to GDP-bound HRAS wild-type protein to KD value with respect to KRAS) ([3]; SPR KD ratio HRAS/KRAS, class symbols): A (a compound having 10 or more and less than 20 is denoted as A)

CCC(CC)[C@@H]1NC(=O)[C@H](CC(C)C)N(C)C(=O)C[C@@H](C(=O)N2CCOCC2)N(C)C(=O)[C@H](C2CCCC2)N(C)C(=O)C2(CCCC2)NC(=O)[C@@H]2CCCN2C(=O)[C@H](CCc2cc(F)c(C(F)(F)F)c(F)c2)NC(=O)CN(C)C(=O)[C@H](Cc2ccc(C(F)(F)F)cc2)N2CCCCC[C@@H](C2=O)N(C)C(=O)CN(C)C1=O [PP0523]
Kd [1, 4]: 12000 pM
NRAS/KRAS (ratio of KD value with respect to NRAS to KD value with respect to KRAS) [2]: A (a compound having 10 or more and less than 20 is denoted as A)
HRAS/KRAS (ratio of KD value with respect to HRAS to KD value with respect to KRAS) [3]: B (a compound having 3 or more and less than 10 is denoted as B)

CCCOC[C@H]1C(=O)N[C@@H]([C@@H](C)CC)C(=O)N(C)CC(=O)N(C)[C@H]2C/C=C\CCN(C2=O)[C@@H](Cc2ccc(C(F)(F)F)cc2)C(=O)N(C)CC(=O)N[C@@H](CCc2cc(F)c(C(F)(F)F)c(F)c2)C(=O)N2C[C@H](OCC)C[C@H]2C(=O)NC2(CC(C)(C)C2)C(=O)N(C)[C@@H](C2CCCC2)C(=O)N(C)[C@H](C(=O)N(C)CC)CC(=O)N1C [PP1572]
Kd ([1]; SPR, Single Cycle Kinetics, 1:1 binding model): 78 pM
NRAS/KRAS (ratio of KD value for NRAS to KD value for KRAS) ([2]; KD ratio class): A (a compound having 10 or more and less than 20 is denoted as A)
HRAS/KRAS (ratio of KD value for HRAS to KD value for KRAS) ([3]; KD ratio class): A (a compound having 10 or more and less than 20 is denoted as A)

CCCN1C(=O)[C@@H]2CCN2C(=O)CN(C)C(=O)[C@H]([C@@H](C)CC)NC(=O)[C@H](CC(C)C)N(C)C(=O)C[C@@H](C(=O)N(C)C)N(C)C(=O)[C@H](C2CCCC2)N(C)C(=O)C2(CCC2)NC(=O)[C@@H]2C[C@@H](OCC)CN2C(=O)[C@H](CCc2ccc(C(F)(F)F)c(Cl)c2)NC(=O)CN(C)C(=O)[C@@H]1Cc1ccc(C(F)(F)F)cc1 [PP0445] ([NMeL]I[Sar][Aze][NPrPhe(4-CF3)][Sar][hPhe(3-Cl-4-CF3)][Hyp](Et)[Ac4c][NMeGly(cPent)][NMeD]-NMe2; lactam N-11)
Kd [1, 4]: 25 pM
NRAS/KRAS (ratio of KD value with respect to NRAS to KD value with respect to KRAS) [2]: C (A compound having a KD ratio of 0.1 or more and less than 3 is denoted as C)
HRAS/KRAS (ratio of KD value with respect to HRAS to KD value with respect to KRAS) [3]: C (A compound having a KD ratio of 0.1 or more and less than 3 is denoted as C)

Reference: patent US20240158446A1, “CYCLIC COMPOUND HAVING SELECTIVE INHIBITORY ACTION ON KRAS OVER HRAS AND NRAS” (CHUGAI SEIYAKU KABUSHIKI KAISHA, priority 2021, published 2024)
